Data taken from PMC4136699 (ACS Chemical Biology, 2014).
Where a SMILES comes first, the peptide text is derived from it. The star is where a group is joined. Dansyl = CN(C)c1cccc2c(S(=O)(=O)*)cccc12

Experiments:
CaPFTase = assay: Continuous fluorescence kinetic assay of dansylated Ds-GCa1a2X peptides; assay type: biochemical, Candida albicans; settings: greater with CaPFTase, Table S4
yPFTase = molecular target: T1, yPFTase (Saccharomyces cerevisiae, UniProt P22007+P29703); assay: as above; assay type: biochemical; settings: greater with yPFTase, Table S4
T1 sequence (P22007 1-431): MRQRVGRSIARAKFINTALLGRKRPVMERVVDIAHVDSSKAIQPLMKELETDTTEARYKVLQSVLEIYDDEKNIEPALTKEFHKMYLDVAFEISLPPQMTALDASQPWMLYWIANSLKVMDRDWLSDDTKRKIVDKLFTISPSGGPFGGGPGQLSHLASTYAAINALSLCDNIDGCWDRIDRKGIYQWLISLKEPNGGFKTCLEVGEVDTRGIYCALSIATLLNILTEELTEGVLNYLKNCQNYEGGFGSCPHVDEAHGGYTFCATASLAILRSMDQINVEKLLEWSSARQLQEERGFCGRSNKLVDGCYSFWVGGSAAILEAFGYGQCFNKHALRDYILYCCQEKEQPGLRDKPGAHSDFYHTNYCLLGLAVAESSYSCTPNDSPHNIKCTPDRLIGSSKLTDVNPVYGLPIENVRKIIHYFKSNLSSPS
T1 sequence (P29703 1-316 partner): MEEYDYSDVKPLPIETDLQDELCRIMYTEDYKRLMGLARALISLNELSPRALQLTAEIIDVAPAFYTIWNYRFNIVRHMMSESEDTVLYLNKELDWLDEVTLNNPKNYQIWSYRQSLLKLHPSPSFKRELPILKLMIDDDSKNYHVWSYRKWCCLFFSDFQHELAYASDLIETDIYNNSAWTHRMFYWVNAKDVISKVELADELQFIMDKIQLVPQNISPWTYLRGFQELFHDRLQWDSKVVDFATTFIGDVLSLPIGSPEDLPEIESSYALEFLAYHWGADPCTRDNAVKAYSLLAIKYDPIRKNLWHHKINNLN

| Compound | kcat/KM of CaPFTase compared with rPFTase (CaPFTase) | kcat/KM of yPFTase compared with rPFTase (yPFTase) |
| --- | --- | --- |
| CC(C)[C@H](NC(=O)[C@@H](NC(=O)[C@@H](NC(=O)[C@H](CS)NC(=O)CNS(=O)(=O)c1cccc2c(N(C)C)cccc12)C(C)C)C(C)C)C(=O)O [Ds-GCVVV] (Dansyl-GCVVV-OH) | 6.2 fold | – |
| Ds-GCVTN | – | 11 fold |
